Among the data in PubChem BioAssay AID449750 (Broad Institute, 2010) are AC50 values, retold here.

The nature of the experiment: non-covalent RecA intein splicing inhibitors, dose response, biochemical, cell-free, fluorescence, secondary screen (AID 449750).

Active and inactive are the calls of the source. No rule for the calls is given here. Where only a bound is given, the exact number is not on record here.

One may read the AC50 as the midpoint of the concentration-response curve, whichever way the signal moves. Take `O=C(Cc1ccccc1)NC1(O)C(=O)c2ccccc2C1=O`: the AC50 is 7.01 µM.
To `Cn1c(O)c(C2=NN(C(=O)CCl)C(c3ccccc3)C2)c(=O)n(C)c1=O` (configuration not stated) belongs 26.2 µM; to `N#Cc1ncc(-c2ccc3c(c2)OCCOCCOCCOCCO3)nc1C#N`, > 38 µM (inactive); to `CC(=O)Nc1ccc(NC(=O)c2nc(S(=O)(=O)Cc3cccc(C)c3)ncc2Cl)cc1`, > 38 µM (inactive).
To `Cc1cc(C(=O)CCl)c(C)n1CCc1ccccc1` belongs 14.2 µM; to `Cc1cc2nc(Sc3c([N+](=O)[O-])nc(C)n3Cc3ccccc3)[nH]c2cc1C`, > 38 µM (inactive).
For `CC(C)(C)c1cc(C(c2cccnc2)N2CCN(CCO)CC2)cc(C(C)(C)C)c1O` (configuration not stated), the concentration at half-maximal activity (AC50) is 17.7 µM.
With `COC(=O)[C@@H]1C[C@]2(OC(=O)c3ccccc3)C=CC(=O)C[C@@H]2N1C(=O)OCc1ccccc1`, the AC50 is 24.5 µM.
For the compound `CCOC(=O)C(C(=O)OCC)c1cc(Br)c2noc3c2c1C(=O)c1ccccc1-3`, the AC50 is 8.74 µM.
To `Nn1cnnc1N/N=C/c1ccc(Cl)c([N+](=O)[O-])c1` belongs > 38 µM (inactive).
`O=c1c2c([nH]n1-c1ccccc1)CCSC2`: the AC50 is 36.5 µM.
The result for `O=C(CCl)N(CCc1ccccc1)CCc1ccccc1` reads 3.25 µM; that for `O=c1c(Cl)c(Cl)cnn1Cc1ccc(F)cc1`, 35.3 µM.
The result for `O=C(CCl)NC(=O)NC12CC3CC(CC(C3)C1)C2` reads 13.3 µM.
In the case of `COc1c(O)ccc2c1CN1CCc3cc4c(cc3C1C2)OCO4` (configuration not stated), the AC50 is > 38 µM (inactive).
For the compound `Cc1c(Cl)cccc1NC(=S)/C(=C(\[O-])c1ccc(Cl)s1)[n+]1ccccc1`, the AC50 is > 38 µM (inactive).
The result for `Nc1c(-c2ccccc2)c(CSc2nc3ccccc3[nH]2)nn1-c1cccc(Cl)c1` reads > 38 µM (inactive); that for `O=C(CCl)NN=C(c1ccccc1)c1ccccc1`, 6.37 µM; that for `Cc1cc(C)c(S(=O)(=O)Nc2cc(SCC(=O)O)c(O)c3ccccc23)cc1C`, 2.58 µM.
As for `O=C(Sc1nnc(-c2ccccc2)o1)N1c2ccccc2Sc2ccccc21`, the half-maximal activity concentration (AC50) is 11 µM.
With `O=C(Cc1ccccc1Cl)NC1(O)C(=O)c2ccccc2C1=O`, the half-maximal activity concentration (AC50) is 7.63 µM.
To `Cc1nc2ccccc2c2c1C(=O)NC2=O` belongs > 38 µM (inactive).
To `COc1ccc(/C=C/C(=O)c2ccncc2)c2ccccc12` belongs 18.6 µM; to `Cc1[nH]nc2c1C1(CCC(c3ccccc3)CC1)C(C#N)=C(N)O2` (configuration not stated), > 38 µM (inactive).
Regarding `CC(C)(C)c1cnnn1-c1ccc(C(=O)CCl)cc1`, the AC50 was > 38 µM (inactive).
To `CCOC(=O)c1c(NC(=O)/C=C/C(=O)O)sc(C)c1-c1ccc(C)c(C)c1` belongs 10.7 µM; to `COC(=O)COc1c(Cl)cc(C(c2c(C)[nH][nH]c2=O)c2c(C)[nH][nH]c2=O)cc1OC`, 27.8 µM; to `CCOc1cc(C(c2c(C)[nH][nH]c2=O)c2c(C)[nH][nH]c2=O)ccc1OC(=O)c1cccc([N+](=O)[O-])c1`, 6.48 µM.
For `c1ccc(CCNCc2cccs2)cc1`, the AC50 was > 38 µM (inactive).
On to `COC(CN(C(=O)CCl)C(C(=O)NC1CCCCC1)c1ccc(Cl)cc1)OC` (configuration not stated), for which the concentration at half-maximal activity (AC50) was 7.61 µM.
The result for `O=C(Nc1nc(-c2ccccc2)cs1)c1ccccc1NS(=O)(=O)c1ccc(F)cc1` reads 8.16 µM.
With `CCOC(=O)C(C#N)C(c1cccnc1)c1c(C)[nH][nH]c1=O` (configuration not stated), the AC50 is > 38 µM (inactive).
Consider `Cc1ccc2nc(/C(C#N)=C\c3ccc([N+](=O)[O-])o3)[nH]c2c1`, for which the AC50 was > 38 µM (inactive).
The result for `O=c1cc(-c2ccc(Br)cc2)[nH][nH]1` reads 13.4 µM.
To `Cc1cc(C(=O)CCl)c(C)n1CC1COc2ccccc2O1` (configuration not stated) belongs 19.4 µM.
With `CS(=O)(=O)c1ccc(C(=O)OCC(=O)NC23CC4CC(CC(C4)C2)C3)cc1[N+](=O)[O-]`, the AC50 is > 38 µM (inactive).
The result for `O=C1C(=O)c2ccccc2C(O)=C1CCCCl` reads 35.6 µM; that for `COC(=O)CSc1nc2sc3c(c2c(=O)n1C1CCCCC1)CCN(C)C3`, > 38 µM (inactive).
With `COc1ccc(S(=O)(=O)Nc2ccc(O)c3ccccc23)cc1`, the concentration at half-maximal activity (AC50) is 0.296 µM.
With `O=C(Nc1ccccc1)Nc1ccc(O)c2ccccc12`, the AC50 was 14.4 µM.
The result for `Cc1ccccc1CS(=O)(=O)c1nnc([C@H](CC(C)C)NC(=O)OC(C)(C)C)o1` reads > 38 µM (inactive); that for `O=C1c2ccccc2-c2c1nc1c([n+]2[O-])CCCC1`, 31.3 µM; that for `CC(C)Oc1cccc(C(=O)C2CCCN(C(=O)c3csnn3)C2)c1` (configuration not stated), > 38 µM (inactive).
Turning to `CCOC(=O)C1=C(C)NC2(O)c3ccccc3C(=O)C12O` (configuration not stated), the AC50 is 7.53 µM.
To `CC(C)[C@H](NC(=O)Nc1ccc(Oc2ccccc2)cc1)C(=O)O` belongs > 38 µM (inactive).
For the compound `CCOC(=O)C1=C(c2ccccc2)NC(N)=NC1c1ccc(OCc2ccc(C(=O)OC)cc2)cc1` (configuration not stated), the AC50 is 9.55 µM.
For `Cc1nn(-c2ccccc2)c2c1C(c1cccs1)C(C#N)=C(N)O2` (configuration not stated), the half-maximal activity concentration (AC50) is 18.3 µM.
The result for `COc1ccc(Br)cc1[C@H]1[C@@H]2C=CCC[C@@]2(C)C(=O)N1Cc1ccccc1` reads > 38 µM (inactive); that for `O=C1Cc2ccccc2C(=O)N1Cc1ccccc1`, > 38 µM (inactive); that for `CC(C)S(=O)(=O)C1=NSC2=NC(=O)/C(=C\c3ccc(OC(=O)c4ccco4)cc3)C(=N)N21`, 30.6 µM.
The result for `Cc1[nH][nH]c(=O)c1C(c1cc([N+](=O)[O-])ccc1O)c1c(C)[nH][nH]c1=O` reads 14.6 µM.
The result for `CN(C1=C(NC(=O)c2ccccc2)C(=O)c2ccccc2C1=O)C1CCS(=O)(=O)C1` (configuration not stated) reads 3.3 µM.
For `c1ccc(-c2nnc(-c3ccccn3)nc2NC2CCCCC2)cc1`, the AC50 is 7.98 µM.
To `O=C(NC1C(=O)NNC1c1ccc(Cl)cc1)c1ccc(F)cc1` (configuration not stated) belongs > 38 µM (inactive); to `CCN(CC)CCNC(=O)c1ccc2c(c1NCCO)C(=O)c1ccccc1C2=O`, 13.1 µM; to `COc1cc(/C=C/c2sc3ccccc3[n+]2CCCS(=O)(=O)[O-])ccc1O`, > 38 µM (inactive).
For `CN1CCN(C(c2ccc(C(F)(F)F)cc2)c2cc(Cl)c3cccnc3c2O)CC1` (configuration not stated), the AC50 was > 38 µM (inactive).
Turning to `Cc1ccc(-c2cc(NC(=O)CCl)n(-c3ccccc3)n2)cc1`, the AC50 is 7.65 µM.
The result for `COc1ccccc1N(C(=O)CCl)c1cn(C(C)=O)c2ccccc12` reads 2.36 µM; that for `CC(=O)NC1N=C(C)N(c2ccccc2)C1=O` (configuration not stated), 33.7 µM.
The result for `ONc1cccnc1-n1nc(C(F)(F)F)cc1C(F)(F)F` reads > 38 µM (inactive); that for `CN1CCc2nc(SCC(=O)Nc3ccc(OC(F)(F)F)cc3)c(C#N)c(-c3cccs3)c2C1`, 23.7 µM; that for `[O-]C1=N/[N+](=C/c2ccccc2Cl)CC1`, > 38 µM (inactive).
Turning to `Cc1ccc(NC(=O)CCl)cc1S(=O)(=O)N1CCCCCC1`, the half-maximal activity concentration (AC50) was 10 µM.
For the compound `COc1ccc(C2CC(c3cccs3)=NN2C(=O)CSC2=NCCS2)cc1` (configuration not stated), the half-maximal activity concentration (AC50) was 38.2 µM.
The result for `Cc1ccc(-n2nc(C)c3c2OC(N)=C(C#N)C3c2cccs2)cc1` (configuration not stated) reads 21.1 µM; that for `Cc1sc(NC(=O)CCl)c(C(=O)c2ccccc2)c1C`, 5.28 µM.
